“Also recorded” adds a separate entry of the source.

For test [1], the system named is soybean root cells. It counts as cell-based. The settings on record: for stimulation of Avr1b(N)-GFP uptake into soybean roots: after 9 hr.
For test [2], the system named is AvrL567(N)-GFP. The format is binding, Melampsora lini.
Test [3] deals with Avr1b(N)-GFP. It counts as binding, Phytophthora sojae.
Test [4] deals with soybean leaf cells. It counts as cell-based.

Turning to `O=P(O)(O)O[C@@H]1C(O)[C@H](OP(=O)(O)O)[C@@H](O)C(O)[C@H]1O` (stereo partly drawn) [1,3-IP2, Inositol 1,3 diphosphate], in test [1], the “inhibition of entry of Avr2-GFP into soybean root cells” value is “inhibited” and the “inhibition of entry of AvrLm6-GFP into soybean root cells” value is reported as “inhibited”.
As to `O=P(O)(O)OC1[C@@H](O)[C@H](O)C(OP(=O)(O)O)[C@H](O)[C@@H]1O` (stereo partly drawn) [IP2, Inositol-1,4-diphosphate], the “inhibition of binding of AvrL567(N)-GFP to PI-4-P-containing liposomes” value in test [2] is reported as “completely block binding”. Moreover, in test [1], the “inhibition of entry of Avr2-GFP into soybean root cells” value is given as “inhibited”, the “inhibition of entry of AvrLm6-GFP into soybean root cells” value is “inhibited”, the “inhibition of uptake/entry of Arg9-GFP into soybean root cells” value was “completely unaffected” and the “inhibition of uptake/entry of Avr1b(N)-GFP into soybean root cells” value is “almost completely blocked”. Moreover, in test [1], the “inhibition of uptake/entry of AvrL567(N)-GFP into soybean root cells” value was “almost completely blocked”. In test [3], the “inhibition of binding of Avr1b(N)-GFP to PI-4-P-containing liposomes” value is given as “inhibited binding”.
Consider `CCCCCCCC(=O)OC[C@H](COP(=O)(O)OC1[C@H](O)[C@H](O)C(OP(=O)(O)O)[C@H](O)[C@H]1O)OC(=O)CCCCCCC` (stereo partly drawn) [di-octanoyl-PI-4-P], for which, in test [1], the “promotion of uptake of Avr1b(N)-GFP and AvrL567(N)-GFP proteins containing alanine substitutions in the RXLR and dEER motifs” value is on record as “did not promote the uptake”; the “stimulation of Arg9-GFP uptake in soybean root cells” value is reported as “does not stimulate uptake”; the “stimulation of AvrL567(N)-GFP uptake into soybean roots” value was “strongly stimulated”; the “stimulation of Avr1b(N)-GFP uptake into soybean roots” value is “strong stimulation; also recorded: stimulated”.
In test [4], AAAA gave an ablation of 0.
On to Arg9, for which the “Avr1b function / cell re-entry in particle bombardment assay (reduction of GUS-positive blue spots with Rps1b)” value in test [4] was “could functionally replace the RXLR2 motif”.
Consider phosphatidyl choline [PC], for which the “stimulation of Avr1b(N)-GFP uptake into soybean roots” value in test [1] is reported as “did not stimulate uptake”.
On the same count and under the same terms, the same measure for phosphatidyl ethanolamine [PE]: “did not stimulate uptake”.
As for phosphatidyl inositol [PI], the “stimulation of Avr1b(N)-GFP uptake into soybean roots” value in test [1] is given as “did not stimulate uptake”.
